Results published in patent publication US9212361B2, “Methods and pharmaceutical compositions for the treatment of hypertension” (INSERM, priority 2013, dated 2015).

Columns and labels:
[1] = molecular target: T1, MR (Rattus norvegicus, UniProt P22199); experiment: NGAL expression in dendritic cells incubated with aldo +/- spironolactone; format: cell-based; details: 24 hr
T1 construct: endogenous in cells; host or cells: dendritic cells differentiated with GM-CSF from bone marrow stem cells of male SD rats
T1 sequence (P22199 1-981): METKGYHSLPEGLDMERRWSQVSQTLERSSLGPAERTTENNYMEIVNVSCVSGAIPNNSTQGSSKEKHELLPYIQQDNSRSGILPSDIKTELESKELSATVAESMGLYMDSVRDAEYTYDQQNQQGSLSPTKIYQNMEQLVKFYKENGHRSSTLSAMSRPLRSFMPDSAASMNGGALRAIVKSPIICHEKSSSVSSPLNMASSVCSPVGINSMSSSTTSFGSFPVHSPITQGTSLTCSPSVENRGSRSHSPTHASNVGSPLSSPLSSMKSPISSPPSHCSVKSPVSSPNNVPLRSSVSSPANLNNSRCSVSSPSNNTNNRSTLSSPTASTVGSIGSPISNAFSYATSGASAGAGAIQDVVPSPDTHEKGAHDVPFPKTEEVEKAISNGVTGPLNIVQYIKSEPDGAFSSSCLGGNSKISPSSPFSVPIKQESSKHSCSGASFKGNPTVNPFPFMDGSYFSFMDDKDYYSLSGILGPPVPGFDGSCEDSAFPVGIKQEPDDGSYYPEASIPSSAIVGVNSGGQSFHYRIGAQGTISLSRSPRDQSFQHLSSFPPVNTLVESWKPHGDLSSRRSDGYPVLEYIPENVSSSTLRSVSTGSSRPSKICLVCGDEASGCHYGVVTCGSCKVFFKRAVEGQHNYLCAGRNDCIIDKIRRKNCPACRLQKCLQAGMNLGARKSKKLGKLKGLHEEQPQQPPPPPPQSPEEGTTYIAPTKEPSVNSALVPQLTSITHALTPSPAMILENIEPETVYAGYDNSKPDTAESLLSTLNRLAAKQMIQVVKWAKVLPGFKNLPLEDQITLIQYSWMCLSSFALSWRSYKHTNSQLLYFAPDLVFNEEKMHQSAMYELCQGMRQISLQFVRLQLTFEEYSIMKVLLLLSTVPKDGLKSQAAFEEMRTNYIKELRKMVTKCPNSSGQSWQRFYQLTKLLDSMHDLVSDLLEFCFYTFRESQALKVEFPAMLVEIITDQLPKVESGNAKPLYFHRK
Description: (§1) FIG. 3. NGAL is an aldo/MR target in DCs (A) and macrophages (B). A:DCs were obtained from male SD rat bone marrow stem cells and differentiated during 6 days with GM-CSF. DCs were incubated with aldo (10 nM), spironolactone (5 μM), aldo plus spironolactone, or vehicle for 24 hr. *p<0.05 by ANOVA analysis (n=4); B: peritoneal macrophages from WT mice were stimulated or not with aldo (10 nM+/−RU28318 (MR antagonist). NGAL behaves similarly as MCP1 (monocy chemoattractant protein).
(§2) Macrophages are purified from abdominal cavity from mice, after 4 days of inflammation induced by thioglycollate injection. Dendritic cells are obtained after 7 days of incubation of bone marrow precursors cells (from mice bone marrow) with GM-CSF (granulocyte macrophage colony-stimulating factor).

[2] = molecular target: T2, MR (Mus musculus, UniProt Q8VII8); experiment: NGAL expression in peritoneal macrophages stimulated with aldo; format: cell-based; details: aldo 10 nM; peritoneal macrophages from WT mice
T2 construct: Macrophages are purified from abdominal cavity from mice; endogenous in cells; host or cells: thioglycollate-elicited peritoneal macrophages from WT mice
T2 sequence (Q8VII8 1-978): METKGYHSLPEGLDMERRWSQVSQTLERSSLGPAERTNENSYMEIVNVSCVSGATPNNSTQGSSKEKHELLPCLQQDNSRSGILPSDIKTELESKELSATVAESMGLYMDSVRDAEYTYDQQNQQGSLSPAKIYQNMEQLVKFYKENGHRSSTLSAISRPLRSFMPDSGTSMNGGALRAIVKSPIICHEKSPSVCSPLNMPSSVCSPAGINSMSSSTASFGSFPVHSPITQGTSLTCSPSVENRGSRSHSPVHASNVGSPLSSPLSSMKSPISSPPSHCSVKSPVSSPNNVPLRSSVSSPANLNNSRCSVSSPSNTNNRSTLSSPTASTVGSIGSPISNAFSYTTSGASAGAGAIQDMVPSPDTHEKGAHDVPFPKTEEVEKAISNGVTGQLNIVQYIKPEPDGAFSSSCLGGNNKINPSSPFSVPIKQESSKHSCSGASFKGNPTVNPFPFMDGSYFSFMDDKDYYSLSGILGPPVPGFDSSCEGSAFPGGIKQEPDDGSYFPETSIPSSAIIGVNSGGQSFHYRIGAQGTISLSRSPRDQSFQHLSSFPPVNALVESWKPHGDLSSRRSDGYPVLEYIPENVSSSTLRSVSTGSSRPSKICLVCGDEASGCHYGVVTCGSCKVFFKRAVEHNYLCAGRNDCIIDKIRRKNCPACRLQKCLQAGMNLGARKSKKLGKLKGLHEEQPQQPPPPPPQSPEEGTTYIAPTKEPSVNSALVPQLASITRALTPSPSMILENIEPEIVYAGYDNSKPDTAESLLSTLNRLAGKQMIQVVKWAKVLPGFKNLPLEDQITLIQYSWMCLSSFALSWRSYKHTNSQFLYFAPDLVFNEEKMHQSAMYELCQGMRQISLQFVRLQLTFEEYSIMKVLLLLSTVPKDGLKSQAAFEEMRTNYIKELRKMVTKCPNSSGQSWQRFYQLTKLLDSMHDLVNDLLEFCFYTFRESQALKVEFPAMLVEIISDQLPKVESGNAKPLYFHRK
Description: as §1, §2

## CC(=O)S[C@@H]1CC2=CC(=O)CC[C@]2(C)[C@H]2CC[C@@]3(C)[C@@H](CC[C@@]34CCC(=O)O4)[C@H]12 [spironolactone]
[1]; spironolactone 5 μM plus aldo 10 nM
  aldo-induced NGAL upregulation in dendritic cells: blocked

## C[C@]12CCC(=O)C=C1CC[C@@H]1[C@@H]2[C@@H](O)C[C@]2(C=O)[C@@H](C(=O)CO)CC[C@@H]12 [aldo, Aldosterone]
[2]
  NGAL expression in macrophages: aldo/MR target gene in the macrophages
[1]; aldo 10 nM
  NGAL expression in dendritic cells: upregulated
